According to patent US20260199323A1, “LIGAND COMPOUNDS FOR E3 UBIQUITIN LIGASE, PROTEIN DEGRADERS DEVELOPED ON BASIS OF LIGAND COMPOUNDS, AND USES THEREOF” (GLUETACS THERAPEUTICS (SHANGHAI) CO., LTD., priority 2021, published 2026):
Where two headings read alike, the source gives them in different places.

Legend:
SR = experiment: CCK-8 tumor cell proliferation, SR; format: cell-based, Human; details: Homo sapiens; Table 15, ALK inhibitor based; SR; read-out: IC50 inhibiting proliferation of tumor cells, SR
How it was run: (§1)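 Cell viability (CCK-8) after compound exposure; IC50 calculated. Cells seeded, treated after 24 h, maximum dose 10 μM, 5-fold serial dilutions over 10 concentrations.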

MV-4-11 = experiment: CCK-8 tumor cell proliferation, MV-4-11; format: cell-based, Human; details: Homo sapiens, MV4-11, MV-4-11, read-out: IC50 inhibiting proliferation of tumor cells, MV-4-11
Procedure: (§2) The tumor cells used herein were cultured in a cell culture medium listed in table 4 at 37° C. in an incubator with 5% CO2. Prior to experimentation, all cells used were correctly identified by STR profiling, and tested negative for mycoplasma through routine screenings.
(§3) IC50 values of the compounds of the present disclosure (including the compounds in Tables 1 and 3, and compounds of examples) were measured using the Meilun Cell Counting Kit-8 kit from Dalian Meilun Biotech Co., Ltd. Assay details are as follows: tumor cells were seeded in a 96-well plate at a density listed in Table 5. After 24 h, 100 μL of the inoculated cells were treated with 0.5 μL of the compounds of the present disclosure (including the compounds in Tables 1 and 3, and compounds of examples) at 10 different successively decreasing concentrations (starting at the highest concentration of 10 μM; 5-fold serial dilutions). After the cells were treated with the compounds of the present disclosure for a period of time, the cell viability detection reagent was added to the culture medium for cell viability assessment according to the instructions provided with the CCK-8 kit. […] The growth inhibition of the compounds of the present disclosure on cells was plotted by Prism Graphpad software, and the IC50 values of the compounds of the present disclosure were calculated therefrom.

CCRF-CEM = experiment: CCK-8 tumor cell proliferation, CCRF-CEM; format: cell-based, Human; details: Homo sapiens; Table 19, IRAK4 inhibitor based; CCRF-CEM; read-out: IC50 inhibiting proliferation of tumor cells, CCRF-CEM
How it was run: as §1

MM.1R = experiment: CCK-8 tumor cell proliferation, MM.1R; format: cell-based; details: read-out: Inhibitory activity (IC50, nM) against tumor cell proliferation, MM.1R
Procedure: as §2, §3

Jurkat = experiment: CCK-8 tumor cell proliferation, Jurkat; format: cell-based, Human; details: Homo sapiens, Table 23, compared to Comparative Example compounds, read-out: Inhibitory activity (IC50, nM) against tumor cell proliferation, Jurkat
Procedure: as §2, §3

CAL-62 = experiment: CCK-8 tumor cell proliferation, CAL-62; format: cell-based, Human; details: Homo sapiens, CAL-62, read-out: Inhibitory activity (IC50, nM) against tumor cell proliferation, CAL-62
How it was run: as §1

[1] = Table 19, IRAK4 inhibitor based
[2] = Table 23, compared to Comparative Example compounds

## CCc1cc2c(cc1N1CCC(N3CCN(Cc4ccc5c(c4F)CN(C4CCC(=O)NC4=O)C5=O)CC3)CC1)C(C)(C)c1[nH]c3cc(C#N)ccc3c1C2=O (stereo not shown) [GT-03758, 8-(4-(4-((2-(2,6-dioxopiperidin-3-yl)-4-fluoro-1-oxoisoindolin-5-yl)methyl)piperazin-1-yl)piperidin-1-yl)-9-ethyl-6,6-dimethyl-11-oxo-6,11-dihydro-5H-benzo[b]carbazole-3-carbonitrile]
SR
  IC50: < 50 nM
MV-4-11; Table 15, ALK inhibitor based
  IC50: 100 to 500 nM

## CCc1cc2c(cc1N1CCC(N3CCN(Cc4ccc5c(c4)C(=O)N(C4CCC(=O)NC4=O)C5=O)CC3)CC1)C(C)(C)c1[nH]c3cc(C#N)ccc3c1C2=O (stereo not shown) [GT-03761, 8-(4-(4-((2-(2,6-dioxopiperidin-3-yl)-1,3-dioxoisoindolin-5-yl)methyl)piperazin-1-yl)piperidin-1-yl)-9-ethyl-6,6-dimethyl-11-oxo-6,11-dihydro-5H-benzo[b]carbazole-3-carbonitrile]
SR
  IC50: < 50 nM
MV-4-11; Table 15, ALK inhibitor based
  IC50: 1000 to 5000 nM

## COc1cc(N2CCN(Cc3ccc4c(c3)CN(C3CCC(=O)NC3=O)C4=O)CC2)ccc1Nc1ncc(Cl)c(Nc2ccccc2P(C)(C)=O)n1 (stereo not shown) [GT-03775, 3-(5-((4-(4-((5-chloro-4-((2-(dimethylphosphoryl)phenyl)amino)pyrimidin-2-yl)amino)-3-methoxyphenyl)piperazin-1-yl)methyl)-1-oxoisoindolin-2-yl)piperidine-2,6-dione]
SR
  IC50: < 50 nM
MV-4-11; Table 15, ALK inhibitor based
  IC50: 100 to 500 nM

## COc1cc(N2CCN(Cc3ccc4c(c3F)CN(C3CCC(=O)NC3=O)C4=O)CC2)ccc1Nc1ncc(Cl)c(Nc2ccccc2P(C)(C)=O)n1 (stereo not shown) [GT-03776, 3-(5-((4-(4-((5-chloro-4-((2-(dimethylphosphoryl)phenyl)amino)pyrimidin-2-yl)amino)-3-methoxyphenyl)piperazin-1-yl)methyl)-4-fluoro-1-oxoisoindolin-2-yl)piperidine-2,6-dione]
SR
  IC50: < 50 nM
MV-4-11; Table 15, ALK inhibitor based
  IC50: 100 to 500 nM

## COc1cc(N2CCN(Cc3cc4c(cc3F)C(=O)N(C3CCC(=O)NC3=O)C4)CC2)ccc1Nc1ncc(Cl)c(Nc2ccccc2P(C)(C)=O)n1 (stereo not shown) [GT-03777, 3-(5-((4-(4-((5-chloro-4-((2-(dimethylphosphoryl)phenyl)amino)pyrimidin-2-yl)amino)-3-methoxyphenyl)piperazin-1-yl)methyl)-6-fluoro-1-oxoisoindolin-2-yl)piperidine-2,6-dione]
SR
  IC50: < 50 nM
MV-4-11; Table 15, ALK inhibitor based
  IC50: 50 to 100 nM

## COc1cc(N2CCN(Cc3cc(F)c4c(c3)CN(C3CCC(=O)NC3=O)C4=O)CC2)ccc1Nc1ncc(Cl)c(Nc2ccccc2P(C)(C)=O)n1 (stereo not shown) [GT-03778, 3-(5-((4-(4-((5-chloro-4-((2-(dimethylphosphoryl)phenyl)amino)pyrimidin-2-yl)amino)-3-methoxyphenyl)piperazin-1-yl)methyl)-7-fluoro-1-oxoisoindolin-2-yl)piperidine-2,6-dione]
SR
  IC50: < 50 nM
MV-4-11; Table 15, ALK inhibitor based
  IC50: 100 to 500 nM

## COc1cc(N2CCN(Cc3cccc4c3CN(C3CCC(=O)NC3=O)C4=O)CC2)ccc1Nc1ncc(Cl)c(Nc2ccccc2P(C)(C)=O)n1 (stereo not shown) [GT-03779, 3-(4-((4-(4-((5-chloro-4-((2-(dimethylphosphoryl)phenyl)amino)pyrimidin-2-yl)amino)-3-methoxyphenyl)piperazin-1-yl)methyl)-1-oxoisoindolin-2-yl)piperidine-2,6-dione]
SR
  IC50: < 50 nM
MV-4-11; Table 15, ALK inhibitor based
  IC50: 100 to 500 nM

## COc1cc(N2CCN(Cc3ccc4c(c3)C(=O)N(C3CCC(=O)NC3=O)C4=O)CC2)ccc1Nc1ncc(Cl)c(Nc2ccccc2P(C)(C)=O)n1 (stereo not shown) [GT-03780, 5-((4-(4-((5-chloro-4-((2-(dimethylphosphoryl)phenyl)amino)pyrimidin-2-yl)amino)-3-methoxyphenyl)piperazin-1-yl)methyl)-2-(2,6-dioxopiperidin-3-yl)isoindoline-1,3-dione]
SR
  IC50: 100 to 500 nM
MV-4-11; Table 15, ALK inhibitor based
  IC50: 1000 to 5000 nM

## Cc1cc(-c2nc(C(=O)Nc3cc4oc(N5CCN(Cc6ccc7c(c6F)CN(C6CCC(=O)NC6=O)C7=O)CC5)nc4nc3N3CC[C@@H](O)C3)co2)ccn1 (stereo partly drawn) [GT-03841, N-(2-(4-((2-(2,6-dioxopiperidin-3-yl)-4-fluoro-1-oxoisoindolin-5-yl)methyl)piperazin-1-yl)-5-((R)-3-hydroxypyrrolidin-1-yl)oxazolo[4,5-b]pyridin-6-yl)-2-(2-methylpyridin-4-yl)oxazole-4-carboxamide]
MV-4-11; [1]
  IC50: 100 to 500 nM

## Cc1cc(-c2nc(C(=O)Nc3cc4oc(N5CCN(Cc6cc7c(cc6F)C(=O)N(C6CCC(=O)NC6=O)C7)CC5)nc4nc3N3CC[C@@H](O)C3)co2)ccn1 (stereo partly drawn) [GT-03842, N-(2-(4-((2-(2,6-dioxopiperidin-3-yl)-6-fluoro-1-oxoisoindolin-5-yl)methyl)piperazin-1-yl)-5-((R)-3-hydroxypyrrolidin-1-yl)oxazolo[4,5-b]pyridin-6-yl)-2-(2-methylpyridin-4-yl)oxazole-4-carboxamide]
MV-4-11; [1]
  IC50: 100 to 500 nM

## Cc1cc(-c2nc(C(=O)Nc3cc4oc(N5CCN(Cc6cc(F)c7c(c6)CN(C6CCC(=O)NC6=O)C7=O)CC5)nc4nc3N3CC[C@@H](O)C3)co2)ccn1 (stereo partly drawn) [GT-03843, N-(2-(4-((2-(2,6-dioxopiperidin-3-yl)-7-fluoro-1-oxoisoindolin-5-yl)methyl)piperazin-1-yl)-5-((R)-3-hydroxypyrrolidin-1-yl)oxazolo[4,5-b]pyridin-6-yl)-2-(2-methylpyridin-4-yl)oxazole-4-carboxamide]
MV-4-11; [1]
  IC50: 50 to 100 nM
CCRF-CEM
  IC50: < 50 nM

## Cc1cc(-c2nc(C(=O)Nc3cc4oc(N5CCN(Cc6cccc7c6CN(C6CCC(=O)NC6=O)C7=O)CC5)nc4nc3N3CC[C@@H](O)C3)co2)ccn1 (stereo partly drawn) [GT-03844, N-(2-(4-((2-(2,6-dioxopiperidin-3-yl)-1-oxoisoindolin-4-yl)methyl)piperazin-1-yl)-5-((R)-3-hydroxypyrrolidin-1-yl)oxazolo[4,5-b]pyridin-6-yl)-2-(2-methylpyridin-4-yl)oxazole-4-carboxamide]
MV-4-11; [1]
  IC50: 100 to 500 nM

## Cc1cc(-c2nc(C(=O)Nc3cc4oc(N5CCN(Cc6ccc7c(c6)C(=O)N(C6CCC(=O)NC6=O)C7=O)CC5)nc4nc3N3CC[C@@H](O)C3)co2)ccn1 (stereo partly drawn) [GT-03845, N-(2-(4-((2-(2,6-dioxopiperidin-3-yl)-1,3-dioxoisoindolin-5-yl)methyl)piperazin-1-yl)-5-((R)-3-hydroxypyrrolidin-1-yl)oxazolo[4,5-b]pyridin-6-yl)-2-(2-methylpyridin-4-yl)oxazole-4-carboxamide]
MV-4-11; [1]
  IC50: 500 to 1000 nM

## O=C1CCC(N2Cc3cc(CCN4CCN(c5ccc([C@@H]6c7ccc(O)cc7CC[C@@H]6c6ccccc6)cc5)CC4)ccc3C2=O)C(=O)N1 (stereo partly drawn) [GT-04562, 3-(5-(2-(4-(4-((1R,2S)-6-hydroxy-2-phenyl-1,2,3,4-tetrahydronaphthalen-1-yl)phenyl)piperazin-1-yl)ethyl)-1-oxoisoindolin-2-yl)piperidine-2,6-dione]
MM.1R; [2]
  IC50: 5000 to 10000 nM
Jurkat
  IC50: 100 to 500 nM
CAL-62; [2]
  IC50: 1000 to 5000 nM

## Nc1ncnc2c1c(-c1ccc(Oc3ccccc3)cc1)nn2C1CCN(CCc2ccc3c(c2)CN(C2CCC(=O)NC2=O)C3=O)CC1 (stereo not shown) [GT-04563, 3-(5-(2-(4-(4-amino-3-(4-phenoxyphenyl)-1H-pyrazolo[3,4-d]pyrimidin-1-yl)piperidin-1-yl)ethyl)-1-oxoisoindolin-2-yl)piperidine-2,6-dione]
MM.1R; [2]
  IC50: < 50 nM
Jurkat
  IC50: 1000 to 5000 nM
CAL-62; [2]
  IC50: 5000 to 10000 nM

## O=C1CCC(N2Cc3cc(CCCN4CCN(c5ccc([C@@H]6c7ccc(O)cc7CC[C@@H]6c6ccccc6)cc5)CC4)ccc3C2=O)C(=O)N1 (stereo partly drawn) [GT-04564, 3-(5-(3-(4-(4-((1R,2S)-6-hydroxy-2-phenyl-1,2,3,4-tetrahydronaphthalen-1-yl)phenyl)piperazin-1-yl)propyl)-1-oxoisoindolin-2-yl)piperidine-2,6-dione]
MM.1R; [2]
  IC50: 1000 to 5000 nM
Jurkat
  IC50: 100 to 500 nM
CAL-62; [2]
  IC50: 1000 to 5000 nM

## Nc1ncnc2c1c(-c1ccc(Oc3ccccc3)cc1)nn2C1CCN(CCCc2ccc3c(c2)CN(C2CCC(=O)NC2=O)C3=O)CC1 (stereo not shown) [GT-04565, 3-(5-(3-(4-(4-amino-3-(4-phenoxyphenyl)-1H-pyrazolo[3,4-d]pyrimidin-1-yl)piperidin-1-yl)propyl)-1-oxoisoindolin-2-yl)piperidine-2,6-dione]
MM.1R; Table 23, given as number
  IC50: > 10000 nM
Jurkat
  IC50: 5000 to 10000 nM
CAL-62; Table 23, given as number
  IC50: > 10000 nM
